According to patent publication US20260325500A1, “METHODS AND COMPOSITIONS FOR TREATING ACUTE STRESS DISORDER” (BioXcel Therapeutics, Inc., priority 2022, published 2026):
“Also recorded” adds a separate entry of the source. Where a name gives a salt, the structure may show the parent alone.

Legend:
[1] = test system: Yohimbine-induced noradrenergic mediated hyperarousal in Wistar rats; assay: Elevated plus maze, yohimbine-induced noradrenergic mediated hyperarousal (Example 2); assay type: in vivo
Source text: Background: Yohimbine is an alpha 2-adrenergic receptor antagonist reported to trigger panic attacks in healthy volunteers and to exacerbate symptoms in patients with panic disorder (Charney et al., 1992 Acta Psychiatr Scand., Vol. 86 (4): 273-282). Peripheral administration of Yohimbine causes noradrenergic mediated hyperarousal in rats as assessed by the EPM paradigm.
Rationale: The drug yohimbine is a natural product used to test a specific pathway, noradrenergic-mediated hyper-arousal. It is well established that yohimbine is an alpha2-adrenergic receptor antagonist and activates the locus coeruleus (LC) and increases noradrenergic signaling (the opposite of alpha2-adrenergic agonists like dexmedetomidine and clonidine). Increased LC activity and noradrenergic signaling makes animals anxious and agitated which can be measured by using the elevated plus maze. In the elevated plus maze, rodents were in the closed arms and explored the open arms depending on their anxiety and agitation (rats and mice normally explore their environments extensively when calm). […] This behavior is correlated to increased level of anxiety caused by noradrenergic mediated hyperarousal.
Animal groups: Male: Wistar rats were used in this study and were randomly divided to different experimental groups (12 animals per group).
Study drugs: Four test drugs with different mechanisms of action linked to agitation were chosen to find drugs that are effective in reducing yohimbine-induced agitation: (1) Fluvoxamine (selective serotonin reuptake inhibitor) (2) Dextromethorphan (modulator of NMDA signals) (3) Diazepam (modulator of gamma-aminobutyric acid (GABA) as a positive control) and (4) Latrepirdine (complex pharmacology).
The test drugs were procured from Sigma or Tocris. dextromethorphan from Sigma Aldrich, Cat No. D9684; latrepirdine from Sigma Aldrich, Cat No. D6196 or Tocris Cat No. 3201 diazepam and fluvoxamine Sigma Aldrich, Cat No. F2802 or Tocris, Cat No. 1033. All these test drugs were formulated in sufficient quantity in 0.9% saline except for fluvoxamine, which was formulated in 30% ethanol in 0.9% saline.
Apparatus: Elevated Plus Maze (EPM) was used (FIG. 1). The maze consisted of two closed arms and two open arms forming a cross, with a square center platform. All visible surfaces were made of black acrylic. Each arm of the maze was placed on a support column above the floor. Antistatic black vinyl curtains used for surrounding the EPM to make an enclosure.
Study design and dosing: Yohimbine was administered by intraperitoneal injection (i.p.) at a dose of 2.5 mg/kg (30 minutes prior to study) to induce agitation and the effects were assessed 30 minutes after yohimbine injection by measuring the number of open arm entries and exploration time in the EPM. The test drugs fluvoxamine, dextromethorphan and latrepirdine dihydrochloride hydrate were administered through intramuscular route and, diazepam through intraperitoneal route into the hindleg thigh muscle of rats (60 minutes prior to study; 30 minutes prior to yohimbine administration). Diazepam was injected 30 minutes intraperitonially prior to the assay i.e. along with yohimbine administration. The study design is illustrated in FIG. 2 and table 5.
After the test drug administration, the rat was placed on the platform opposite a closed arm. The number of entries and the time spent in each arm were recorded during a 5 min period. The animal was considered as entered in arm when it placed its four paws into the arm.
Statistical analysis: Analysis of variance (ANOVA) was performed on the result data. Fisher's PLSD was used for pairwise comparisons and p value≤0.05 was considered significant.

[2] = test system: rat forced swim test model (depressive-like behavior); assay: Forced swim test in dark phase (Example 4); assay type: in vivo, Sprague Dawley rats; settings: 1 mg/kg, i.m.; versus vehicle saline
Source text: Animal groups: Male Sprague Dawley (SD) rats (8-10 weeks old) were grouped housed 2 per cage in standard animal cages with facilities for pelleted food and drinking water in polycarbonate bottle with stainless steel sipper tubes. During the experimental period, animals were housed in a single experimental room. Rats were distributed in 7 different experimental groups with 9-12 rats per group as illustrated in Table 8. Animals were distributed to different groups based on body weight data. Each experimental group was also coded so that the experimenter became unaware of the true experimental group at the time FST trial.
Animals were housed in an environment-controlled room at 22±3° C. and relative humidity of 30 to 70 percent. During the study, 12/12 light/dark cycles were maintained. Lights of the acclimatization area were switched off at 06:00 PM. All experiments were carried out at ambient temperature under dark phase of lighting (between 06:00 PM to 06:00 AM). Adequate fresh air supply of 12-15 air changes/hour was maintained in the experimental room. The maximum and minimum temperature and relative humidity in the experimental rooms was recorded once daily. The relative humidity in the experimental room was calculated daily from dry and wet bulb temperature recordings.
Swim 1 was carried out between 18:30 to 21:30.
Swim 2 was carried out between 19:30 to 21:30. Animals were administered test compounds from 18:30 onwards in staggered manner 60 minutes before FST 2.
Forced swim test was carried out in dark phase
On Day 1, animals were subjected to forced swim test training for 15 minutes (Swim 1) and on Day 2, Swim 2 was carried out post treatment.
On day 2 animals were dosed with respective treatment 60 min prior to performing FST.
Forced swim test (Swim 2) was scored manually with no video recording.
Forced swim test (FST), was used to study the depressive-like behavior in rodents. The test was carried out in transparent cylindrical glass containers measuring 46 cm in height and 20 cm in diameter.
There were 2 swim sessions, 24 h apart. The first session, Swim 1 was the pretest/training stage (15 min) and the second session, Swim 2, was the test stage (8 min).
In swim 2, first 1-minute data was excluded from analysis and rest 7 minutes data was considered. In 7 minutes, data, it was divided 5 minutes and 2 minute.
Twenty-four hours after the start of Swim 1, the test swim (Swim 2) was carried out.
Rat was placed in the water-filled cylinder for 8 min (Swim 2).
The duration of time spent immobile, swimming, and climbing was observed by an observer blind to the treatment group.
Immobility period: A rat was judged to be immobile when it remained floating in the water without struggling and was making only those movements necessary to keep its head above water.
Statistical analysis: One Way ANOVA, Dunnet's multiple comparison test was applied with respect to vehicle saline and Tukey's multiple comparison test was applied to compare the data in between the groups using GraphPad Prism version 9 software.

[3] = 3 mg/kg and 10 mg/kg, i.m., 60 min prior, yohimbine 2.5 mg/kg i.p.

Cc1ccc2c(c1)c1c(n2CCc2ccc(C)nc2)CCN(C)C1 [latrepirdine dihydrochloride hydrate]
open arm entries and time spent, comparison with diazepam ([1]; 3 mg/kg and 10 mg/kg, i.m. versus diazepam 1 mg/kg, i.p.): comparable to diazepam
number of open arm entries [1, 3]: significantly increased number of open arm entries; also recorded: significantly increased the number of entries into the open arms
time spent in the open arms (exploration time) [1, 3]: increased exploration time; also recorded: significantly increased
yohimbine-induced noradrenergic mediated hyperarousal ([1]; latrepirdine 3 mg/kg and 10 mg/kg, i.m., yohimbine 2.5 mg/kg i.p.): reversed yohimbine-induced noradrenergic mediated hyperarousal
increase in swimming time [2]: 9.8%
